Laboratory results as given in publication PMC12203697, “Bioactive constituents from the edible seaweed Halymenia hawaiiana (Rhodophyta)” (Pharmaceutical Biology, 2025).
≈ marks a conversion by molar mass, not a printed value. Like-named read-outs stand apart in the source and are kept apart here.

What was measured:
S. aureus CART817 = assay: Antibacterial MIC, broth microdilution with resazurin; assay type: cell-based; settings: Staphylococcus aureus, CART817
Procedure: (§1) The minimum inhibitory concentrations (MICs) were determined using a two-fold serial dilution method with MHB following the recommendations of the Clinical and Laboratory Standards Institute (CLSI [2012]; Elshikh et al. [2016]). In brief, serial two-fold dilutions of the samples in DMSO were mixed with MHB in a 96-well microplate. Then, 50 µL of bacteria suspension was added to each well, resulting in a final concentration of 1 × 10^4 colony-forming units/well. The plates were incubated at 35–37 °C for 18–24 hr. After incubation, 10 µL of 0.18% resazurin (Cat. No. R7017, Sigma-Aldrich, USA) was added to each well (Elshikh et al. [2016]). The MIC was assessed within 2–3 hr after the addition of resazurin. All antimicrobial assays were performed in triplicate, using vancomycin (Cat. No. SBR00001, Sigma-Aldrich, USA) and gentamicin (Cat. No. G1397, Sigma-Aldrich, USA) as standard controls.

MSSA R113 = assay: as above; assay type: cell-based; settings: Staphylococcus aureus, MSSA
Excerpt: (§2) Methicillin-resistant Staphylococcus aureus (MRSA), methicillin-susceptible S. aureus (MSSA), and Gram-negative clinical isolates of bacteria [Escherichia coli (9637) and Serratia marcescens ATCC 13880] were used for this study. […] MSSA HBP10, MSSA LUU7, MSSA R113, S. aureus ONE9, and MSSA POB2 were isolated in Hawaiʻi (Gerken et al. [2021]). Mueller Hinton Broth (MHB, GTIN:00382902979630, Becton, Dickinson and Company, Franklin Lakes, NJ, USA) and Mueller Hinton Agar (MHA, GTIN:00382902252504, Becton, Dickinson and Company, Franklin Lakes, NJ, USA,) were used for bacterial inoculation. MRSA was a pathogen strain causing hospital-acquired infections in 1982. This strain easily acquires resistance to antibiotics, such as vancomycin. MSSA strains isolated from the Island of Hawaiʻi included: Honolʻii Beach Park (HBP10) carry the genes erm(C), aph(3′)-III, and mecA, which provide resistance to macrolide, aminoglycoside, and beta-lactam antibiotics, respectively; Wailuku River (LUU7) which contains the blaZ gene (beta-lactam resistance) (Gerken et al. [2021]). Richardson’s Beach Park (R113) and Onekahakaha (ONE9) which is known for its virulence factors (hlgA, hlgB, hlgC, lukD, and lukE).
as §1

S. aureus 8325-4 = assay: as above; assay type: cell-based; settings: Staphylococcus aureus, 83254
Excerpt: as §2, §1

S. aureus ONE9 = assay: as above; assay type: cell-based; settings: Staphylococcus aureus, ONE9
Excerpt: as §2, §1

MRSA USA300 = assay: as above; assay type: cell-based; settings: Staphylococcus aureus
Excerpt: as §2, §1

MSSA LUU7 = assay: as above; assay type: cell-based; settings: Staphylococcus aureus, MSSA
Excerpt: as §2, §1

MRSA HBP10 = assay: as above; assay type: cell-based, Staphylococcus aureus
Excerpt: as §2, §1

MRSA POB2 = assay: as above; assay type: cell-based, Staphylococcus aureus
Excerpt: as §2, §1

S. aureus NEWMAN = assay: as above; assay type: cell-based, Staphylococcus aureus; settings: Staphylococcus aureus, NEWMAN
Excerpt: as §2, §1

S. marcescent = assay: as above; assay type: cell-based, Serratia marcescens; settings: Gram-negative
Excerpt: as §2, §1

[1] = Ferric-reducing antioxidant power (FRAP) assay
Procedure: The FRAP assay was used to evaluate antioxidant activity based on the ability of the sample to reduce Fe^3+-TPTZ (2,4,6-tris(2-pyridyl)-S-triazine) to Fe^2+-TPTZ (Benzie and Strain [1996]). This reduction results in a color change from colorless to blue. The absorbance was measured at 593 nm using a Microplate Reader (BioTek ELx800 Instruments Inc. Winooski, Vermont, USA) with the Gen 5 software for FRAP value calculations. A ferrous sulfate heptahydrate (FeSO4 · 7H2O) (Cat. No. 215422, Sigma-Aldrich, USA) standard curve, ranging from 1000 µM to 50 µM, was prepared for the assay. The FRAP reagent consists of 300 mM sodium acetate buffer (pH 3.6) (Cat. No. 90358, Sigma-Aldrich, USA), 10 mM TPTZ solution (Cat. No. T1253, Sigma-Aldrich, USA), and 20 mM ferric (III) chloride hexahydrate (FeCl3 · 6H2O) (Cat. No. 236489, Sigma-Aldrich, USA) in a 10:1:1 ratio, respectively, and heated to 37 °C for ten minutes before use. A blank was measured at 593 nm with 150 µL FRAP reagent added to each well of a 96-well microtiter plate. Samples (20 µL of each sample) (1, 0.5, 0.25 mg/mL) and ascorbic acid (Sigma-Aldrich, Cat. No. A4403) positive control (1 mg/mL) were added in triplicates. Reducing capacity was expressed by FRAP values in an µM FeSO4/µg sample unit.

[2] = tested on: A549 human lung carcinoma epithelial cells; assay: SRB cytotoxicity assay, A549 cells; settings: SRB assay, 72 h, highest concentration tested 100 µg/ml
Procedure: After incubation, cells were fixed with trichloroacetic acid (Cat. No. T4885, Sigma-Aldrich, USA), stained with SRB (Cat. No. S9012, Sigma-Aldrich, USA), and the absorbance was measured at 515 nm. Percent cell death was calculated using the following equation: % Cell death=(ODc−OD0)‐(ODs−OD0)/(ODc−OD0)×100
OD0 = Optical density of cells before treatment (baseline reading).
ODC = Optical density of untreated control cells after 72 h.
ODS = Optical density of cells treated with the test sample after 72 h.
Non-linear regression analysis was performed using GraphPad Prism to calculate the IC50 value. This value reflects the concentration needed to inhibit cell growth by 50%.
All data are presented as mean ± standard error of the mean (SEM) and were collected from three separate experiments. Statistical analyses were conducted using Student’s t-test or ANOVA, followed by Tukey’s multiple comparisons test. Significance is indicated by *p < 0.05, **p < 0.01, and ***p < 0.001.

E. coli = assay: Antibacterial MIC, broth microdilution with resazurin; assay type: cell-based; settings: Escherichia coli, Gram-negative
Excerpt: as §2, §1

Row | SMILES | MIC (MRSA HBP10; MRSA HBP10, Gram-positive) | MIC (MRSA POB2; MRSA POB2, Gram-positive) | MIC (S. marcescent) | FRAP ([1]; FeSO4 standard curve) [µM] | FRAP ([1]; µM FeSO4/µg sample) [µM/µg] | other results
1 | CN[C@H](CC(C)C)C(=O)N[C@H]1C(=O)N[C@@H](CC(N)=O)C(=O)N[C@H]2C(=O)N[C@H]3C(=O)N[C@H](C(=O)N[C@H](C(=O)O)c4cc(O)cc(O)c4-c4cc3ccc4O)[C@H](O)c3ccc(c(Cl)c3)Oc3cc2cc(c3O[C@@H]2O[C@H](CO)[C@@H](O)[C@H](O)[C@H]2O[C@H]2C[C@](C)(N)[C@H](O)[C@H](C)O2)Oc2ccc(cc2Cl)[C@H]1O [Vancomycin, vancomycin, reference compound] |  |  |  |  |  | MIC (S. aureus CART817): 1 µg/mL (≈ 0.69 µM); MIC (MSSA R113): 0.5 µg/mL (≈ 0.345 µM); MIC (S. aureus 8325-4): 0.5 µg/mL (≈ 0.345 µM); MIC (S. aureus ONE9): 0.5 µg/mL (≈ 0.345 µM); MIC (MRSA USA300): 0.5 µg/mL (≈ 0.345 µM); MIC (MSSA LUU7): 0.5 µg/mL (≈ 0.345 µM); MIC (MRSA HBP10; Staphylococcus aureus, MRSA): 1 µg/mL (≈ 0.69 µM); MIC (MRSA POB2; Staphylococcus aureus, MRSA): 0.5 µg/mL (≈ 0.345 µM); MIC (S. aureus NEWMAN): 0.5 µg/mL (≈ 0.345 µM)
2 | CCCCCCCCCCCCCCCC(=O)O [Compound 5, palmitic acid] | Inactive | Inactive | Inactive | 88.06 | 1.10 ± 0.02 | cytotoxic response against A549 cells (in words) [2]: inactive
3 | CCCCCCCCCCCCCCCC(C)=O [Compound 4, 2-heptadecanone] | Inactive | Inactive | Inactive |  |  | 
4 | CNC(C)C1CCC(N)C(OC2C(N)CC(N)C(OC3OCC(C)(O)C(NC)C3O)C2O)O1 (stereo not shown) [Gentamicin, gentamicin, reference compound] |  |  |  |  |  | MIC (E. coli): 0.25 µg/mL (≈ 0.523 µM); MIC (S. marcescent; Serratia marcescens, read-out: MIC): 0.25 µg/mL (≈ 0.523 µM)

Further lines, with some results ahead:

Row | MIC (MRSA HBP10; MRSA HBP10, Gram-positive) | MIC (MRSA POB2; MRSA POB2, Gram-positive) | MIC (S. marcescent) | SMILES | FRAP ([1]; FeSO4 standard curve) [µM] | FRAP ([1]; µM FeSO4/µg sample) [µM/µg] | other results
5 | Inactive | Inactive | Inactive | CCCCCCCC/C=C/CCCCCCC(O)C(=O)OC (stereo not shown) [Compound 8, methyl (9E)-2-hydroxy-9-octadecenoate] |  |  | 
6 | Inactive | Inactive | Inactive | CCCCCCCCCCCCCCCC(=O)OC [Compound 6, methyl palmitate] | 499.40 | 6.24 ± 0.07 | 
